Our source for the IC50 values is US12023319B2, “Carboxylic acid aromatic amides” (priority 2016, dated 2024).

Experiment [1] deals with T1, human Bradykinin B1 receptor (Homo sapiens, UniProt P46663).
T1 construct: host or cells: CHO-K1
T1 sequence (P46663 1-353): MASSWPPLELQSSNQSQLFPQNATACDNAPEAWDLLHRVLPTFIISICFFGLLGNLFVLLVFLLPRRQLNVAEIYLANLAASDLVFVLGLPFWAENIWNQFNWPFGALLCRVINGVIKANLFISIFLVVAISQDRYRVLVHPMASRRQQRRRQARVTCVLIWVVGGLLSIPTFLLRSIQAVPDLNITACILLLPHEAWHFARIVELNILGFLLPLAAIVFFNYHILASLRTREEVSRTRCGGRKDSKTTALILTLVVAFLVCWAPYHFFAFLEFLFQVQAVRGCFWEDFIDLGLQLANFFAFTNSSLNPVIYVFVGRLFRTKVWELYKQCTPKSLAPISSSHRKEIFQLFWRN
Nature of the experiment: Calcium flux assay (FLIPR), CHO-K1 cells expressing human Bradykinin B1 receptor, absence of 0.1% BSA (hB1 free IC50). The following applies: absence of 0.1% BSA in assay buffer. It counts as cell-based. In a few lines:
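Peak FLIPR fluorescence (538 nm) after B1 agonist peptide addition gave IC50s, scaled between DMSO and full block by 20 µM Lys-(Des-Arg-Leu)-Bradykinin. Compounds were preincubated 30 min at 28° C with calcium-dye-loaded CHO-K1 cells expressing human B1, at 8 concentrations in triplicate, 1% DMSO final.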
On the technique in general: A change in cytosolic calcium serves as a functional read-out for many receptors and channels.

Experiment [2] deals with T2, native human Bradykinin B1 receptor (Homo sapiens, UniProt P46663).
T2 construct: which express native human Bradykinin B1 receptor after induction with human IL-1beta; Coriell Institute; host or cells: IMR-90 human foetal lung fibroblasts, induced with human IL-1beta
T2 sequence (P46663 1-353): T1 sequence (P46663 1-353)
Description: Calcium flux assay (FLIPR) with IMR-90 human fibroblasts expressing Bradykinin B1 receptor after IL-1beta induction (hB1 IMR-90). It counts as cell-based. The following applies: IMR-90 human fibroblasts after IL-1beta induction, read-out: hB1 IMR90 IC50. As for the experimental part:
Calcium Flux Assay (FLIPR) with Human Fibroblasts Expressing Bradykinin B1 Receptor (hB1 IMR-90)
The Calcium flux Assay was carried out utilising IMR-90 human foetal lung fibroblasts (American Type Culture Collection, Rockville, MD; and Coriell Institute, Camden, New Jersey), which express native human Bradykinin B1 receptor after induction with human IL-1beta.
The fibroblasts were cultured in complete growth media comprised of Dulbecco's modified Eagle's medium (DMEM; Sigma) containing 10% foetal bovine serum, 4 mM L-glutamine, and 1% nonessential amino acids. The cells were maintained in a humidified atmosphere with 5% CO2 at 37° C. and were sub-cultured at a ratio of 1:3, every other day.
For the assay, IMR-90 fibroblasts were harvested using TrypLE Express (GIBCO/Invitrogen) and seeded into 384-well plates (Corning Cellbinding Surface, Cat. 3683) at a density of 15000 cells/well. The following day, cells were treated with 0.35 ng/mL human IL-1beta in 10% FBS/MEM for 3 h to up-regulate Bradykinin B1 receptor. Induced cells were loaded with fluorescent calcium indicator by incubation with 2.5 μM Fluo-4/AM (Invitrogen) at 37° C., 5% CO2 for 2 h in the presence of 2.5 mM probenecid in 1% FBS/MEM. […] Compound examples were assayed at 8 concentrations in triplicate. […] A peptide antagonist Lys-(Des-Arg-Leu)-Bradykinin (Bachem, Brackley) at 20 µM was used to determine the full inhibition as control. IC50 values were determined by the same way described for the FLI PR assay with recombinant cells.

As a reminder, the pIC50 is the IC50 on a negative log10 scale, so that one unit is a factor of ten.

pIC50: −log10 of the molar value.

In the case of `O=C(O)c1cc(NC(=O)C2(c3ccc(C(F)(F)F)cc3F)CC2)ccc1-c1ccc(C(F)F)nc1` [Example 4, 2-[6-(Difluoromethyl)pyridin-3-yl]-5-[({1-[2-fluoro-4-(trifluoromethyl)phenyl]cyclopropyl}carbonyl)amino]benzoic acid], the pIC50 in experiment [1] was 6.96; in experiment [2], 5.47.
For the molecule `CCC(F)(F)c1ccc(-c2c(Cl)cc(NC(=O)C3(c4ccc(OC(F)(F)F)cc4F)CC3)cc2C(=O)O)cn1` [Example 106, 3-Chloro-2-[6-(1,1-difluoropropyl)pyridin-3-yl]-5-[({1-[2-fluoro-4-(trifluoromethoxy)phenyl]cyclopropyl}carbonyl)amino]benzoic acid], the negative-log IC50 (pIC50) was 8.08 in experiment [1] and 7.46 in experiment [2].
On to `O=C(O)c1cc(NC(=O)C2(c3ccc(F)cn3)CC2)cc(F)c1-c1cnn(C2CCC2)c1` [Example 44, 2-(1-Cyclobutyl-1H-pyrazol-4-yl)-3-fluoro-5-({[1-(5-fluoropyridin-2-yl)cyclopropyl]carbonyl}amino)benzoic acid], for which the pIC50 in experiment [1] was 7.35; in experiment [2], 7.24.
In the case of `Cc1ccc(C2(C(=O)Nc3cc(F)c(-c4cnn(C5CCC5)c4)c(C(=O)O)c3)CC2)c(F)c1` [Example 25, 2-(1-Cyclobutyl-1H-pyrazol-4-yl)-3-fluoro-5-({[1-(2-fluoro-4-methylphenyl)cyclopropyl]carbonyl}amino)benzoic acid], the negative-log IC50 (pIC50) in experiment [1] was 7.85; in experiment [2], 8.23.
With `Cc1cc(NC(=O)C2(c3ccc(C(F)(F)F)cc3F)CC2)cc(C(=O)O)c1-c1cnn(C2CCC2)c1` [Example 107, 2-(1-Cyclobutyl-1H-pyrazol-4-yl)-5-[({1-[2-fluoro-4-(trifluoromethyl)phenyl]cyclopropyl}carbonyl)amino]-3-methylbenzoic acid], the pIC50 in experiment [1] was 7.66; in experiment [2] it was 7.44.
For the molecule `CC(C)(C)c1cn(-c2c(F)cc(NC(=O)C3(c4ccc(OC(F)(F)F)cc4F)CC3)cc2C(=O)O)cn1` [Example 91, 2-(4-tert-Butyl-1H-imidazol-1-yl)-3-fluoro-5-[({1-[2-fluoro-4-(trifluoromethoxy)phenyl]cyclopropyl}carbonyl)amino]benzoic acid], the pIC50 in experiment [1] was 7.70; in experiment [2] it was 8.12.
For the molecule `O=C(O)c1cc(NC(=O)C2(c3ccc(C(F)(F)F)cc3)CC2)cc(F)c1-c1cnn(C2CCC2)c1` [Example 36, 2-(1-Cyclobutyl-1H-pyrazol-4-yl)-3-fluoro-5-[({1-[4-(trifluoromethyl)phenyl]cyclopropyl}carbonyl)amino]benzoic acid], the results for the pIC50 in experiment [1] and in experiment [2] were 8.22 and 7.85, respectively.
In the same order, the values of `CCC(F)(F)c1ccc(-c2ccc(NC(=O)C3(c4ccc(OC(F)(F)F)cc4F)CC3)cc2C(=O)O)cn1` [Example 27, 2-[6-(1,1-Difluoropropyl)pyridin-3-yl]-5-[({1-[2-fluoro-4-(trifluoromethoxy)phenyl]cyclopropyl}carbonyl)amino]benzoic acid] are 7.48 and 7.14.
In the same order, the values of `O=C(O)c1cc(NC(=O)C2(c3ccc(OC(F)(F)F)cc3F)CC2)cc(F)c1-c1ccc(C(F)F)nc1` [Example 95, 2-[6-(Difluoromethyl)pyridin-3-yl]-3-fluoro-5-[({1-[2-fluoro-4-(trifluoromethoxy)phenyl]cyclopropyl}carbonyl)amino]benzoic acid] are 7.89 and 7.68.
With `Cc1ccc(C2(C(=O)Nc3ccc(-n4cc(C(C)(C)C)cn4)c(C(=O)O)c3)CC2)c(F)c1` [Example 14, 2-(4-tert-Butyl-1H-pyrazol-1-yl)-5-({[1-(2-fluoro-4-methylphenyl)cyclopropyl]carbonyl}amino)benzoic acid], the values for the pIC50 in experiment [1] and in experiment [2] were 6.00 and 5.96, respectively.
`CC(C)n1cc(-c2c(F)cc(NC(=O)C3(c4ccc(OC(F)(F)F)cc4F)CC3)cc2C(=O)O)cn1` [Example 89, 3-Fluoro-5-[({1-[2-fluoro-4-(trifluoromethoxy)phenyl]cyclopropyl}carbonyl)amino]-2-[1-(propan-2-yl)-1H-pyrazol-4-yl]benzoic acid]: the negative-log IC50 (pIC50) in experiment [1] is 7.49; in experiment [2], 7.85.
Turning to `CC(C)(C)c1cn(-c2ccc(NC(=O)C3(c4ccc(C(F)(F)F)cc4F)CC3)cc2C(=O)O)cn1` [Example 67, 2-(4-tert-Butyl-1H-imidazol-1-yl)-5-[({1-[2-fluoro-4-(trifluoromethyl)phenyl]cyclopropyl}carbonyl)amino]benzoic acid], the pIC50 in experiment [1] is 7.21; in experiment [2], 7.39.
Turning to `O=C(O)c1cc(NC(=O)C2(c3ccc(C(F)(F)F)c(F)c3)CC2)cc(F)c1-c1cnn(C2CCC2)c1` [Example 39, 2-(1-Cyclobutyl-1H-pyrazol-4-yl)-3-fluoro-5-[({1-[3-fluoro-4-(trifluoromethyl)phenyl]cyclopropyl}carbonyl)amino]benzoic acid], the pIC50 in experiment [1] was 7.74; in experiment [2], 8.21.
Regarding `O=C(O)c1cc(NC(=O)C2(c3ccc(OC(F)(F)F)cc3F)CC2)cc(Cl)c1-c1cnn(C2CCC2)c1` [Example 101, 3-Chloro-2-(1-cyclobutyl-1H-pyrazol-4-yl)-5-[({1-[2-fluoro-4-(trifluoromethoxy)phenyl]cyclopropyl}carbonyl)amino]benzoic acid], the pIC50 in experiment [1] is 8.46; in experiment [2], 8.26.
With `CC(C)(C)n1cc(-c2ccc(NC(=O)C3(c4ccc(OC(F)(F)F)cc4F)CC3)cc2C(=O)O)cn1` [Example 73, 2-(1-tert-Butyl-1H-pyrazol-4-yl)-5-[({1-[2-fluoro-4-(trifluoromethoxy)phenyl]cyclopropyl}carbonyl)amino]benzoic acid], the pIC50 in experiment [1] is 7.68; in experiment [2], 7.36.
As for `CC(C)(C)c1ccn(-c2ccc(NC(=O)C3(c4ccc(C(F)(F)F)cc4F)CC3)cc2C(=O)O)n1` [Example 12, 2-(3-tert-Butyl-1H-pyrazol-1-yl)-5-[({1-[2-fluoro-4-(trifluoromethyl)phenyl]cyclopropyl}carbonyl)amino]benzoic acid], the figures for the pIC50 in experiment [1] and in experiment [2] were 5.92 and 5.54, respectively.
On to `CC(C)(C)c1cnn(-c2ccc(NC(=O)C3(c4ccc(C(F)(F)F)cc4F)CC3)cc2C(=O)O)c1` [Example 17, 2-(4-tert-Butyl-1H-pyrazol-1-yl)-5-[({1-[2-fluoro-4-(trifluoromethyl)phenyl]cyclopropyl}carbonyl)amino]benzoic acid], for which the pIC50 is 6.64 in experiment [1] and 7.00 in experiment [2].
With `CCOc1ccc(-c2ccc(NC(=O)C3(c4cccc(Cl)c4)CC3)cc2C(=O)O)cn1` [Example 9, 5-({[1-(3-Chlorophenyl)cyclopropyl]carbonyl}amino)-2-(6-ethoxypyridin-3-yl)benzoic acid], the pIC50 in experiment [1] is 6.85; in experiment [2], 6.49.
For `CC(C)n1cc(-c2ccc(NC(=O)C3(c4ccc(C(F)(F)F)cc4F)CC3)cc2C(=O)O)cn1` [Example 70, 5-[({1-[2-Fluoro-4-(trifluoromethyl)phenyl]cyclopropyl}carbonyl)amino]-2-[1-(propan-2-yl)-1H-pyrazol-4-yl]benzoic acid], the results for the negative logarithm of the IC50 (pIC50) in experiment [1] and in experiment [2] were 7.47 and 7.31, respectively.
Take `Cc1ccc(-c2ccc(NC(=O)C3(c4ccc(C(F)(F)F)cc4F)CC3)cc2C(=O)O)nc1` [Example 18, 5-[({1-[2-Fluoro-4-(trifluoromethyl)phenyl]cyclopropyl}carbonyl)amino]-2-(5-methylpyridin-2-yl)benzoic acid]: the pIC50 in experiment [1] was 6.57; in experiment [2] it was 6.08.
For `CC(C)n1cc(-c2c(F)cc(NC(=O)C3(c4ccc(C(F)(F)F)cc4F)CC3)cc2C(=O)O)cn1` [Example 88, 3-Fluoro-5-[({1-[2-fluoro-4-(trifluoromethyl)phenyl]cyclopropyl}carbonyl)amino]-2-[1-(propan-2-yl)-1H-pyrazol-4-yl]benzoic acid], the results for the pIC50 in experiment [1] and in experiment [2] were 7.49 and 8.00, respectively.
On to `O=C(O)c1cc(NC(=O)C2(c3cccc(Cl)c3)CC2)ccc1-c1cnn(C2CCC2)c1` [Example 28, 5-({[1-(3-Chlorophenyl)cyclopropyl]carbonyl}amino)-2-(1-cyclobutyl-1H-pyrazol-4-yl)benzoic acid], for which the negative logarithm of the IC50 (pIC50) in experiment [1] was 6.52; in experiment [2], 6.34.
